Test results as given in patent US20030124571A1, “Novel human septin and uses therefor” (The Government of the United States of America, priority 2000, published 2003).

Columns and labels:
[1] = tested on: NRP-154 cells; experiment: Apoptosis / cell death (DNA laddering, morphology), NRP-154 cells; format: cell-based, rat; details: 24 hours; okadaic acid 30 nM, staurosporine 2 nM
Method: (§1) 2×10^5 M-NRP1 cells or NRP-154 cells were plated in 6-well dishes. After 24 hours, 2 ml DMEM/F12 containing 15 mM HEPES, 1% calf serum, and 0.1 μM dexamethasone were added to the plates. The cells were cultured at 37° C. for 24 hours and then detached by trypsinization.
(§2) Internucleosomal DNA ladders were detected with a modification (described below) of TACS apoptotic DNA ladder kit (Trevigen, Githersburg, Md.). Briefly, the detached cells were centrifuged at 600×g to form cell pellets. The cell pellets were then resuspended in 25 μl PBS and lysed by the addition of 25 μl of lysis buffer. DNA was purified from the mixture as directed by Trevigen.
The nicked ends of the DNA were ^32P-labeled by incubating 1 μg of DNA with 2.5 units of Klenow fragment of DNA Poll in the presence of 0.5 μCi of (α-^32P) dCTP (3 Ci/mmol, Dupont NEN, Boston, Mass.) for 30 min at room temperature in a 10 μl reaction volume containing 5 mM MgCl2 and 10 mM Tris-HCl (pH 7.5). One third of the labeled DNA was electrophoresed through 1.8% agarose-1×TAE at 70 V for 2 hours. […]
(§3) NRP-154 and M-NRP1 cells were treated with a control (i.e., the identical solution without the agent of interest) or with 10 ng/ml TGF-β, okadaic acid (30 nM) or staurosporine (2 nM) for 24 hours. Apoptosis was determined by DNA laddering, essentially as described in Example VA, above.

[2] = tested on: M-NRP1 cells; experiment: Apoptosis (DNA laddering, morphology), M-NRP1 cells; format: cell-based, rat; details: 24 hours; 10 ng/ml TGF-β, okadaic acid 30 nM, staurosporine 2 nM
Method: as §1, §2
The nicked ends of the DNA were ^32P-labeled by incubating 1 μg of DNA with 2.5 units of Klenow fragment of DNA Poll in the presence of 0.5 μCi of (α-^32P) dCTP (3 Ci/mmol, Dupont NEN, Boston, Mass.) for 30 min at room temperature in a 10 μl reaction volume containing 5 mM MgCl2 and 10 mM Tris-HCl (pH 7.5). One third of the labeled DNA was electrophoresed through 1.8% agarose-1×TAE at 70 V for 2 hours. Gels were dried and exposed to X-Omat AR (Kodak, Rochester, N.Y.) for about 1 hour.
Staurosporine and okadaic acid (Upstate Biotechnology Incorporated, Lake Placid, N.Y.) were dissolved in dimethyl sulfoxide (DMSO) and diluted to a final concentration of 2 nM and […], respectively, in 0.01% DMSO.
as §3

[3] = tested on: COS cells; experiment: TUNEL assay of transfected COS cells; format: cell-based, monkey; details: COS cells transfected with control vector, 10 ng/ml TGF-β for 24 hours
Method: COS cells were cultured as previously described (Section E, above). […] When these cells are transfected with ARTS and treatment with TGF-β they are induced to cell death.
COS cells were then transfected with control vector or wildtype ARTS, essentially as described above, and treated with 10 ng/ml TGF-β for 24 hours.
The apoptotic response of COS cells to TGF-β was assessed by a TUNEL assay ([…], now Roche, Indianapolis, Ind.) following the manufacturer's instructions.
COS cells were cultured and transfected, as described above, with equal concentrations of either pcDNA3 control vector, ARTS or M-ARTS-pcDNA3 using the Lipofectamine transfection reagent (Gibco BRL Life Technologies, Gaithersburg, Md.). The cells were treated with 1 o ng/ml TGF-β for 24 hours.
Apoptosis was examined in a TUNEL assay (Boehringer-Mannheim), according to the manufacturer's instructions.

[4] = tested on: caspase 3 in NRP-154 cells; experiment: Caspase 3 fluorescent activity assay, NRP-154 cells; format: cell-based, rat; details: 10 ng/ml TGF-β 24 hours
Method: Cells were seeded to 50% confluence in six-well plates in media containing 10% fetal calf serum overnight. Following 24 hours after transfection, cells media was changed to contain 1% fetal calf serum with or without 10 ng/ml TGF-β for additional 24 hours. Cells were treated with caspase 3 aldehyde inhibitor (Ac-DEVD-CHO) supplied with caspase 3 fluorescent activity kit according to the manufacturers' protocols (Pharmingen, San-Diego, Calif.). Results were read using FL-600 microplate fluorescence reader (Bio-Tek).

[5] = tested on: M-NRP1 cells; experiment: TUNEL assay, M-NRP1 cells; format: cell-based, rat; details: 10 ng/ml TGF-β, 24 hours
Method: (§4) TUNEL assays were performed using the TACS In Situ Apoptosis Detection Kit (Trevigen). Briefly, NRP-154 and M-NRP1 cells were plated at 8×10^4 cells/ml in a 96 well plate and allowed to attach overnight. Cells were then treated with either 10 ng/ml TGF-β (R&D Systems, Inc., Minneapolis, Minn.), or control (i.e., the identical solution without TGF-β) for 24 hours, fixed with formaldehyde and analyzed for stained nuclei according to the manufacturer's instructions.

[6] = tested on: NRP-154 cells; details: 48-72 hours exposure to 10 ng/ml TGF-β; cited from earlier work
[7] = tested on: NRP-154 cells; experiment: TUNEL assay, NRP-154 cells; format: cell-based, rat; details: 10 ng/ml TGF-β, 24 hours
Method: as §4

[8] = tested on: cyclin A promoter construct (pCAL2) in NRP-154 cells; experiment: Cyclin A promoter construct pCAL2-luc luciferase assay, NRP-154 cells; format: cell-based, rat; details: 24 hours of treatment with 10 ng/ml TGF-β
Method: (§5) M-NRP1 and NRP-154 cells were cultured in 10% fetal bovine serum as described by Chaudhary et al., (1998) J. Biol. Chem. 273: 17708-17712) and exposed to 10 ng/ml TGF-β1 for 24 hours.
(§6) M-NRP1 cells were transiently transfected with pCal-luc (a pCAL2 reporter construct described by Keeton et al., (1991) J. Biol. Chem. 266: 23048-23052) using the Lipofectamine (Gibco BRL Life Technologies, Gaithersburg, Md.) transfection reagent.
(§7) Activity of the transiently transfected cyclin A promoter construct, pCal2-luc, was assessed by a luciferase assay and measured using a luminometer. The basal activity (e.g., without TGF-β treatment) of pCAL2 was similar in MNRP-1 and NRP-154 cells.

[9] = tested on: M-NRP1 cells; experiment: Thymidine incorporation assay, M-NRP1 cells; format: cell-based, rat; details: 24 hr treatment with 10 ng/ml TGF-β1
Method: (§8) M-NRP1 and NRP-154 cells were plated at 1×10^5 cells per well in 24 well plates and allowed to attach overnight. Incorporation of (^3H)-thymidine was measured by adding radioactivity for 3 hours, 24 hours after addition of control or 10 ng/ml TGF-β1. Plates were counted on a Packard Top Count. Parallel plates (e.g., those treated in an identical manner) were harvested by trypinization for counting in a Coulter Counter.

[10] = tested on: NRP-154 cells; experiment: Thymidine incorporation assay, NRP-154 cells; format: cell-based, rat; details: 24 hr treatment with 10 ng/ml TGF-β1
Method: as §8

[11] = tested on: cyclin A promoter construct (pCAL2) in M-NRP1 cells; experiment: Cyclin A promoter construct pCAL2-luc luciferase assay, M-NRP1 cells; format: cell-based, rat; details: 24 hours of exposure to 10 ng/ml TGF-β
Method: as §5, §6, §7

Molecule | apoptosis [1] | apoptosis [2] | apoptosis (TUNEL) [3] | caspase 3 activity [4] | TUNEL staining of nuclei [5] | cell death [6] | TUNEL staining of nuclei [7] | pCAL2 activity [8] | (3H)-thymidine uptake stimulated [9] [%] | (3H)-thymidine uptake inhibited [10] | activity of the pCal-luc reporter [11]
C=C1[C@@H](O)[C@@H]2O[C@]3(CC[C@H](/C=C/[C@@H](C)[C@@H]4CC(C)=C[C@@]5(O[C@H](C[C@@](C)(O)C(=O)O)CC[C@H]5O)O4)O3)CC[C@H]2O[C@@H]1[C@@H](O)C[C@H](C)[C@H]1O[C@@]2(CCCCO2)CC[C@H]1C [okadaic acid] | morphologically evident shrinkage, nuclear fragmentation, and loss of attachment characteristic of apoptosis | remain sensitive to apoptosis |  |  |  |  |  |  |  |  | 
CN[C@@H]1C[C@H]2O[C@@](C)([C@@H]1OC)n1c3ccccc3c3c4c(c5c6ccccc6n2c5c31)C(=O)NC4 [staurosporine] | morphologically evident shrinkage, nuclear fragmentation, and loss of attachment characteristic of apoptosis | remain sensitive to apoptosis |  |  |  |  |  |  |  |  | 
TGF-β: recombinant human TGF-β1 (R&D Systems), transforming growth factor-β |  | resistant to apoptosis | did not undergo apoptosis | caspase 3 was activated | most nuclei from M-NRP1 cells remained intact | over 80% | strong TUNEL staining of apoptotic nuclei | strong decrease | 14 | greater than 80% | unaffected
